Results on 18 compounds are retold here after patent publication US20240059703A1 (AMGEN INC., priority 2021, published 2024).

Structures are written as SMILES. Read-outs that look alike come from different tables or passages of the source.

Test [1] has as its system A549 (human lung carcinoma) cells. The experiment in a line: Cell Viability Assay (CellTiter-Glo), A549. It is filed as cell-based. The procedure: MIA PaCa-2 (human pancreatic carcinoma; ATCC CRL-1420) or A549 (human lung carcinoma; ATCC CCL-185) cells were cultured in RPMI 1640 medium containing 10% fetal bovine serum and 1× penicillin/streptomycin/L-glutamine. Cells were seeded in 384-well plates at a density of 1.67E+04 cells/mL and incubated at 37° C., 5% CO2, overnight. Serially-diluted compound or DMSO was added to the cells, and plates were incubated at 37° C., 5% CO2 for 72 h. Cell viability was measured using a CellTiter-Glo® Luminescent Cell Viability Assay kit (Promega) according to the manufacturer's protocol. The luminescence signal of treated samples was normalized to DMSO control, and data were analyzed using a 4-parameter logistic model to calculate IC50 values.
(Cellular ATP, detected with luciferase, serves as a proxy for viable cell number.)

Test [2] has as its target KRAS G12C (Homo sapiens (Human), UniProt P01116, C118A/G12C). The experiment in a line: 2 h coupled exchange assay. The test is classed as biochemical. As for the experimental part: The term “2 h coupled exchange assay” or “20 h coupled exchange assay” as used herein refers to the assay described in the Section entitled “BIOLOGICAL EVALUATION.”
In test [3] the test system is MIA PaCa-2 (human pancreatic carcinoma) cells. Put plainly: Cell Viability Assay (CellTiter-Glo), MIA PaCa-2. The test is classed as cell-based. The procedure:
Serially-diluted compound or DMSO was added to the cells, and plates were incubated at 37° C., 5% CO2 for 72 h. Cell viability was measured using a CellTiter-Glo® Luminescent Cell Viability Assay kit (Promega) according to the manufacturer's protocol. The luminescence signal of treated samples was normalized to DMSO control, and data were analyzed using a 4-parameter logistic model to calculate IC50 values.

The mark [4] stands for this setting: Avg 2 h Coupled exchange IC50, 2 h compound pre-incubation, SOS-mediated nucleotide exchange.

KRAS G12C, sequence (P01116 other isoform, or with tags, fused parts or gaps G12C/C118A): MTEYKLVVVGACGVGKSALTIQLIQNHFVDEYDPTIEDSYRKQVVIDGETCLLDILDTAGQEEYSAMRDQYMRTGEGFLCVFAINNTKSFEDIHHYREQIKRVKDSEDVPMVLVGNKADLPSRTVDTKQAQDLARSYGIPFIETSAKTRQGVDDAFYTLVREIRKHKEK

What is called IC50 is the concentration needed to halve the response being measured. For `C=CC(=O)N1CC2(CCN(c3nc4c(c(-c5ncccc5F)c3C#N)CC[C@@H](c3scnc3C)C4)C2)C1` (racemic) [Example 23-57, (7R)-4-(3-fluoro-2-pyridinyl)-7-(4-methyl-1,3-thiazol-5-yl)-2-(2-(2-propenoyl)-2,6-diazaspiro[3.4]octan-6-yl)-5,6,7,8-tetrahydro-3-quinolinecarbonitrile (7S)-4-(3-fluoro-2-pyridinyl)-7-(4-methyl-1,3-thiazol-5-yl)-2-(2-(2-propenoyl)-2,6-diazaspiro[3.4]octan-6-yl)-5,6,7,8-tetrahydro-3-quinolinecarbonitrile], the IC50 was over 5000 nM in test [1] (Homo sapiens, A549, 72 h); 85 nM in test [2] (Avg 2 h Coupled exchange IC50, 2 h compound pre-incubation); 299 nM in test [3] (Homo sapiens, MIA PaCa-2, 72 h).
On to `C=CC(=O)N1CC2(CCN(c3nc4c(c(-c5c(C)ccc6[nH]ncc56)c3C#N)CC(C(C)C)C4)C2)C1` (racemic) [Example 24-1, (6R)-4-(5-methyl-1H-indazol-4-yl)-6-(2-propanyl)-2-(2-(2-propenoyl)-2,6-diazaspiro[3.4]octan-6-yl)-6,7-dihydro-5H-cyclopenta[b]pyridine-3-carbonitrile and (6S) 4-(5-methyl-1H-indazol-4-yl)-6-(2-propanyl)-2-(2-(2-propenoyl)-2,6-diazaspiro[3.4]octan-6-yl)-6,7-dihydro-5H-cyclopenta[b]pyridine-3-carbonitrile], for which the IC50 in test [1] (72 h) is over 5000 nM; in test [2] (read-out: Avg 2 h Coupled exchange IC50, 2 h compound pre-incubation) it was 62 nM; in test [3] (72 h) it was 1120 nM.
For `C=CC(=O)N1CC2(CCN(c3nc4c(c(-c5c(C)ccc6[nH]ncc56)c3C#N)CCC(C)(C)C4)C2)C1` (single isomer, unassigned) [Example 1-8, (P)-7,7-dimethyl-4-(5-methyl-1H-indazol-4-yl)-2-(2-(2-propenoyl)-2,6-diazaspiro[3,4]octan-6-yl)-5,6,7,8-tetrahydro-3-quinolinecarbonitrile], the concentration for half-maximal inhibition (IC50) in test [1] (Homo sapiens, A549, 72 h) is over 5000 nM; in test [2] (setting [4]), 14 nM; in test [3] (72 h), 36.4 nM.
As for `C=CC(=O)N1CC2(CCN(c3nc4c(c(-c5c(C)ccc6[nH]ncc56)c3C#N)CCC(C)(C)C4)C2)C1` (single isomer, unassigned) [Example 1-10, (M)-7,7-dimethyl-4-(5-methyl-1H-indazol-4-yl)-2-(2-(2-propenoyl)-2,6-diazaspiro[3.4]octan-6-yl)-5,6,7,8-tetrahydro-3-quinolinecarbonitrile], the half-maximal inhibitory concentration (IC50) in test [1] (72 h) came out at 2910 nM; in test [2] (setting [4]) it was 6700 nM; in test [3] (72 h), 2500 nM.
Turning to `C=CC(=O)N1CC2(CCN(c3nc4c(c(-c5c(C)ccc6[nH]ncc56)c3C)CCC(C)(C)C4)C2)C1` (single isomer, unassigned) [Example 2-11, (P)-1-(6-(3,7,7-trimethyl-4-(5-methyl-1H-indazol-4-yl)-5,6,7,8-tetrahydro-2-quinolinyl)-2,6-diazaspiro[3.4]octan-2-yl)-2-propen-1-one], the IC50 in test [1] (Homo sapiens, A549, 72 h) came out at 6750 nM; in test [2] (setting [4]), 27 nM; in test [3] (Homo sapiens, MIA PaCa-2, 72 h), 53 nM.
Taken in the same sequence, the figures for `C=CC(=O)N1CC2(CCN(c3nc4c(c(-c5cccc6cc(O)ccc56)c3C)CCC(C)(C)C4)C2)C1` (single isomer, unassigned) [Example 2-15, (P)-1-(6-(4-(6-hydroxy-1-naphthalenyl)-3,7,7-trimethyl-5,6,7,8-tetrahydro-2-quinolinyl)-2,6-diazaspiro[3.4]octan-2-yl)-2-propen-1-one] were over 5000 nM, 66 nM and 106 nM.
For `C=CC(=O)N1CC2(CCN(c3nc4c(c(-c5ccc(F)c6sc(N)nc56)c3C)CCC(C)(C)C4)C2)C1` (single isomer, unassigned) [Example 2-17], the IC50 in test [1] (Homo sapiens, A549, 72 h) is over 5000 nM; in test [2] (setting [4]), 64 nM; in test [3] (Homo sapiens, MIA PaCa-2, 72 h), 155 nM.
As for `C=CC(=O)N1CC2(CCN(c3nc4c(c(-c5c(C)ccc6cnn(C)c56)c3C)CCC(C)(C)C4)C2)C1` (single isomer, unassigned) [Example 2-21, (P)-1-(6-(4-(1,6-dimethyl-1H-indazol-7-yl)-3,7,7-trimethyl-5,6,7,8-tetrahydro-2-quinolinyl)-2,6-diazaspiro[3.4]octan-2-yl)-2-propen-1-one], the IC50 in test [1] (Homo sapiens, A549, 72 h) is over 5000 nM; in test [2] (setting [4]), 161 nM; in test [3] (Homo sapiens, MIA PaCa-2, 72 h) it was 441 nM.
`C=CC(=O)N1CC2(CCN(c3nc4c(c(-c5cc(O)cc6ccccc56)c3C#N)[C@H]3CC[C@@H]4C3)C2)C1` (single isomer, unassigned) [Example 2-39]: the IC50 in test [1] (72 h) was over 5000 nM; in test [2] (setting [4]) it was 9 nM; in test [3] (72 h) it was 68 nM.
Taken in the same sequence, the figures for `C=CC(=O)N1CC2(CCN(c3nc4c(c(-c5cc(O)cc6ccccc56)c3C#N)[C@H]3CC[C@@H]4C3)C2)C1` (single isomer, unassigned) [Example 2-40] were 2000 nM, 46 nM and 529 nM.
Turning to `C=CC(=O)N1CC2(CCN(c3nc4c(c(-c5cc(O)cc6cccnc56)c3C#N)C[C@H]3C[C@@H]4C3(C)C)C2)C1` (single isomer, unassigned) [Example 2-45], the concentration for half-maximal inhibition (IC50) is over 5000 nM in test [1] (Homo sapiens, A549, 72 h); 77 nM in test [2] (setting [4]); over 5000 nM in test [3] (Homo sapiens, MIA PaCa-2, 72 h).
Regarding `C=CC(=O)N1CC2(CCN(c3nc4c(c(-c5cc(O)cc6ncccc56)c3C#N)C[C@H]3C[C@@H]4C3(C)C)C2)C1` (single isomer, unassigned) [Example 2-46], the IC50 was over 5000 nM in test [1] (Homo sapiens, A549, 72 h); 6 nM in test [2] (setting [4]); 135 nM in test [3] (Homo sapiens, MIA PaCa-2, 72 h).
As for `C=CC(=O)N1CC2(CCN(c3cc4c(c(-c5cc(O)cc6ccccc56)c3C#N)OCCC4)C2)C1` (single isomer, unassigned) [Example 2-54, (M)-8-(3-hydroxy-1-naphthalenyl)-6-(2-(2-propenoyl)-2,6-diazaspiro[3.4]octan-6-yl)-3,4-dihydro-2H-chromene-7-carbonitrile], the IC50 is over 5000 nM in test [1] (Homo sapiens, A549, 72 h); 28 nM in test [2] (setting [4]); 56 nM in test [3] (Homo sapiens, MIA PaCa-2, 72 h).
The corresponding values for `C=CC(=O)N1CC2(CCN(c3nc4ccccc4c(-c4c(C)ccc5[nH]ncc45)c3C)[C@H]2C)C1` (single isomer, unassigned) [Example 2-57] are over 5000 nM, 106 nM and 921 nM.
The corresponding values for `C=CC(=O)N1CC2(CCN(c3nc4cc(F)ccc4c(-c4c(C)ccc5[nH]ncc45)c3C)[C@H]2C)C1` (single isomer, unassigned) [Example 2-58] are over 5000 nM, 282 nM and 2080 nM.
For the compound `C=CC(=O)N1CC2(CCN(c3nc4cc(F)ccc4c(-c4c(C)ccc5[nH]ncc45)c3C)[C@H]2C)C1` (single isomer, unassigned) [Example 2-61], the IC50 is over 5000 nM in test [1] (72 h), 134 nM in test [2] (setting [4]) and 1320 nM in test [3] (72 h).
Turning to `C=CC(=O)N1CC2(CCN(c3nc4c(c(-c5cc(O)ccc5C)c3C#N)C[C@H]3C[C@@H]4C3(C)C)C2)C1` (single isomer, unassigned) [Example 2-69], the IC50 was over 5000 nM in test [1] (Homo sapiens, A549, 72 h); 15 nM in test [2] (setting [4]); 221 nM in test [3] (Homo sapiens, MIA PaCa-2, 72 h).
The corresponding values for `C=CC(=O)N1CC2(CCN(c3nc4c(c(-c5cc(O)ccc5Cl)c3C#N)C[C@H]3C[C@@H]4C3(C)C)C2)C1` (single isomer, unassigned) [Example 2-74] are over 5000 nM, 21 nM and 202 nM.
